In patent US8080657B2, “Compounds of reverse turn mimetics and the use thereof” (Choongwae Pharma Corporation, priority 2008, dated 2011):
Like-named read-outs stand apart in the source and are kept apart here.

System: Wnt signaling
Experiment: TopFlash reporter gene bioassay in SW480 cells
Format: cell-based
Details: read-out: RGA, IC50 (μM) TopF
[1] = Homo sapiens, SW480, TopFlash reporter gene assay, inhibition of Wnt signaling

Row | SMILES | IC50 [1] [µM] | other results
1 | C=CCN1CC(=O)N2[C@@H](Cc3ccc(O)cc3)C(=O)N(Cc3cccc(C(=O)N4CCCC4)c3)C[C@@H]2N1C(=O)NCc1ccccc1 [compound 189] |  | IC50 (Homo sapiens, SW480): 2.68 ± 0.48 µM
2 | C=CCN1CC(=O)N2[C@@H](Cc3ccc(O)cc3)C(=O)N(Cc3cccc(-c4cccc(C#N)c4)n3)C[C@@H]2N1C(=O)NCc1ccccc1 [compound 191] | 2.81 ± 0.52 | 
3 | C=CCN1CC(=O)N2[C@@H](Cc3ccc(O)cc3)C(=O)N(Cc3ccc(OC)c(F)c3)C[C@@H]2N1C(=O)NCc1ccccc1 [compound 193] | 2.86 ± 0.49 | 
4 | C=CCN1CC(=O)N2[C@@H](Cc3ccc(O)cc3)C(=O)N(Cc3cccc(C(=O)N(C)C)n3)C[C@@H]2N1C(=O)NCc1ccccc1 [compound 197] | 21.8 ± 3.69 | 
5 | C=CCN1CC(=O)N2[C@@H](Cc3ccc(O)cc3)C(=O)N(Cc3cccnc3-c3cccnc3)C[C@@H]2N1C(=O)NCc1ccccc1 [compound 198] | 22.2 ± 5.69 | 
6 | C=CCN1CC(=O)N2[C@@H](Cc3ccc(O)cc3)C(=O)N(Cc3csc4cc(NC(N)=O)ccc34)C[C@@H]2N1C(=O)NCc1ccccc1 [compound 201] | 26.1 ± 7.1 | 
7 | C=CCN1CC(=O)N2[C@@H](Cc3ccc(O)cc3)C(=O)N(Cc3csc4cc(NS(N)(=O)=O)ccc34)C[C@@H]2N1C(=O)NCc1ccccc1 [compound 202] | 28.8 ± 5.69 | 
8 | C=CCN1CC(=O)N2[C@@H](Cc3ccc(O)cc3)C(=O)N(Cc3cccc4cc[nH]c34)C[C@@H]2N1C(=O)NCc1ccccn1 [compound 205] |  | IC50 (Homo sapiens, SW480): 3.14 ± 0.68 µM
9 | C=CCN1CC(=O)N2[C@@H](Cc3ccc(O)cc3)C(=O)N(Cc3cccc(C(N)=O)c3)C[C@@H]2N1C(=O)NCc1ccccc1 [compound 207] | 3.25 ± 0.41 | 
10 | C=CCN1CC(=O)N2[C@@H](Cc3ccc(O)cc3)C(=O)N(Cc3ccc(OC)c(-c4cccnc4)c3)C[C@@H]2N1C(=O)NCc1ccccc1 [compound 208] | 3.27 ± 0.8 | 
11 | C=CCN1CC(=O)N2[C@@H](Cc3ccc(O)cc3)C(=O)N(Cc3cccc(-c4ncc[nH]4)c3)C[C@@H]2N1C(=O)NCc1ccccc1 [compound 209] | 3.3 ± 0.58 | 
12 | C=CCN1CC(=O)N2[C@@H](Cc3ccc(O)cc3)C(=O)N(Cc3cccc(C(=O)N4CCOCC4)c3)C[C@@H]2N1C(=O)NCc1ccccc1 [compound 212] | 3.62 ± 0.63 | 
13 | C=CCN1CC(=O)N2[C@@H](Cc3ccc(OP(=O)(O)O)cc3)C(=O)N(Cc3ccc(OC)cc3F)C[C@@H]2N1C(=O)NCc1ccccc1 [compound 216] |  | IC50 (Homo sapiens, SW480): 3.8 ± 1.1 µM
14 | C=CCN1CC(=O)N2[C@@H](Cc3ccc(O)cc3)C(=O)N(Cc3cccc(-c4cccnc4)n3)C[C@@H]2N1C(=O)NCc1ccccc1 [compound 217] | 3.87 ± 0.45 | 
15 | C=CCN1CC(=O)N2[C@@H](Cc3ccc(O)cc3)C(=O)N(Cc3cccc(-c4cccc(OC)c4)n3)C[C@@H]2N1C(=O)NCc1ccccc1 [compound 218] | 3.96 ± 0.93 | 
16 | C=CCN1CC(=O)N2[C@@H](Cc3ccc(O)cc3)C(=O)N(Cc3ccccc3Sc3ccc(Cl)cc3)C[C@@H]2N1C(=O)NCc1ccccc1 [compound 219] | 3.97 ± 0.57 | 
17 | C=CCN1CC(=O)N2C(Cc3ccc(O)cc3)C(=O)N(Cc3ccccc3N3CCNCC3)CC2N1C(=O)NCc1ccccc1 (stereo not shown) [compound 221] | 36.1 ± 2.69 | 
18 | C=CCN1CC(=O)N2[C@@H](Cc3ccc(OCC(O)CO)cc3)C(=O)N(Cc3cccc4scnc34)C[C@@H]2N1C(=O)NCc1ccccc1 (stereo partly shown) [compound 222] | 36.4 ± 2 | 
19 | C=CCN1CC(=O)N2[C@@H](Cc3ccc(O)cc3)C(=O)N(Cc3ccc4cc[nH]c4c3)C[C@@H]2N1C(=O)NCc1ccccc1 [compound 223] |  | IC50 (Homo sapiens, SW480): 4.01 ± 0.96 µM
20 | C=CCN1CC(=O)N2[C@@H](Cc3ccc(O)cc3)C(=O)N(Cc3ccc(F)c4scnc34)C[C@@H]2N1C(=O)NCc1ccc(OC)c(OC)c1 [compound 224] | 4.3 ± 0.7 | 
21 | CN1CC(=O)N2[C@@H](Cc3ccc(O)cc3)C(=O)N(Cc3cccc4scnc34)C[C@@H]2N1C(=O)NCc1ccccc1 [compound 232] | 4.97 ± 0.73 | 
22 | C=CCN1CC(=O)N2[C@@H](Cc3ccc(O)cc3)C(=O)N(Cc3cncc(C(=O)OC)c3)C[C@@H]2N1C(=O)NCc1ccccc1 [compound 233] | 4.98 ± 0.69 | 
23 | C=CCN1CC(=O)N2[C@@H](Cc3ccc(O)c(Cl)c3)C(=O)N(Cc3cccc4scnc34)C[C@@H]2N1C(=O)NCc1ccccc1 [compound 234] | 40.2 ± 5.7 | 
24 | C=CCN1CC(=O)N2[C@@H](Cc3ccc(O)cc3)C(=O)N(Cc3cccc(C(=O)N4CC=CC4)c3)C[C@@H]2N1C(=O)NCc1ccccc1 [compound 239] | 5.09 ± 1.32 | 
25 | C=CCN1CC(=O)N2[C@@H](Cc3ccc(O)cc3)C(=O)N(Cc3cccc(C(=O)N(C)C)c3)C[C@@H]2N1C(=O)NCc1ccccc1 [compound 240] | 5.41 ± 0.89 | 
26 | C=CCN1CC(=O)N2[C@@H](Cc3ccc(O)cc3)C(=O)N(Cc3ccc(F)c4scnc34)C[C@@H]2N1C(=O)NCCc1ccccc1 [compound 245] |  | IC50 (TopFlash reporter gene assay, inhibition of Wnt signaling): 6.19 ± 0.73 µM
27 | C=CCN1CC(=O)N2[C@@H](Cc3ccc(O)cc3)C(=O)N(Cc3csc4ccc(NS(C)(=O)=O)cc34)C[C@@H]2N1C(=O)NCc1ccccc1 [compound 246] |  | IC50 (Homo sapiens, SW480): 6.59 ± 0.86 µM
28 | C=CCN1CC(=O)N2[C@@H](Cc3ccc(O)cc3)C(=O)N(Cc3ccc(OCCC)cc3)C[C@@H]2N1C(=O)NCc1ccccc1 [compound 247] | 6.66 ± 0.88 | 
29 | C=CCN1CC(=O)N2[C@@H](Cc3ccc(O)cc3)C(=O)N(Cc3ccc(OCC)cc3)C[C@@H]2N1C(=O)NCc1ccccc1 [compound 249] | 6.8 ± 1.5 | 
30 | C=CCN1CC(=O)N2[C@@H](Cc3ccc(OC(N)=O)cc3)C(=O)N(Cc3ccc(F)cc3F)C[C@@H]2N1C(=O)NCc1ccccc1 [compound 251] |  | IC50 (Homo sapiens, SW480): 1.14 ± 0.07 µM

Second part, led by results:

Row | IC50 [1] [µM] | SMILES | other results
31 | 2.67 ± 0.59 | C=CCN1CC(=O)N2[C@@H](Cc3ccc(O)cc3)C(=O)N(Cc3ccccc3S(C)(=O)=O)C[C@@H]2N1C(=O)NCc1ccccc1 [compound 188] | 
32 | 2.85 ± 0.79 | C=CCN1CC(=O)N2[C@@H](CC3=CC(=O)NC3=O)C(=O)N(Cc3cccc4scnc34)C[C@@H]2N1C(=O)NCc1ccccc1 [compound 192] | 
33 | 2.89 ± 0.5 | C=CCN1CC(=O)N2[C@@H](Cc3ccc(O)cc3)C(=O)N(Cc3cccc(C(=O)OCC)n3)C[C@@H]2N1C(=O)NCc1ccccc1 [compound 194] | 
34 | 20.9 ± 3.94 | C=CCN1CC(=O)N2[C@@H](Cc3ccc(O)cc3)C(=O)N(Cc3csc4ccc(NC(N)=O)cc34)C[C@@H]2N1C(=O)NCc1ccccc1 [compound 195] | 
35 | 21.2 ± 2.15 | C=CCN1CC(=O)N2[C@@H](Cc3ccc(O)cc3C)C(=O)N(Cc3ccc(F)cc3F)C[C@@H]2N1C(=O)NCc1ccccc1 [compound 196] | 
36 | 25.9 ± 3.38 | C=CCN1CC(=O)N2[C@@H](Cc3ccc(O)cc3)C(=O)N(Cc3cccnc3N3CCC(N4CCCC4)CC3)C[C@@H]2N1C(=O)NCc1ccccc1 [compound 199] | 
37 | 25.9 ± 4.72 | C=CCN1CC(=O)N2[C@@H](Cc3ccc(O)cc3)C(=O)N(Cc3csc4ccc(N(Cc5ccccc5)Cc5ccccc5)cc34)C[C@@H]2N1C(=O)NCc1ccccc1 [compound 200] | 
38 | 3.13 ± 0.44 | C=CCN1CC(=O)N2[C@@H](Cc3ccc(O)cc3)C(=O)N(Cc3cccc4ccn(Cc5cccc([N+](=O)[O-])c5)c34)C[C@@H]2N1C(=O)NCc1ccccc1 [compound 204] | 
39 | 3.18 ± 0.75 | C=CCN1CC(=O)N2[C@@H](Cc3ccc(O)cc3)C(=O)N(Cc3csc4c(N)cccc34)C[C@@H]2N1C(=O)NCc1ccccc1 [compound 206] | 
40 | 3.57 ± 0.89 | C=CCN1CC(=O)N2[C@@H](Cc3ccc(O)cc3)C(=O)N(Cc3cccc(C(=O)NNC(=O)OC(C)(C)C)c3)C[C@@H]2N1C(=O)NCc1ccccc1 [compound 210] | 
41 | 3.61 ± 0.47 | C=CCN1CC(=O)N2[C@@H](Cc3ccc(O)cc3)C(=O)N(Cc3cn(S(=O)(=O)c4ccc(C)cc4)c4ccccc34)C[C@@H]2N1C(=O)NCc1ccccc1 [compound 211] | 
42 | 3.62 ± 0.65 | C=CCN1CC(=O)N2[C@@H](Cc3ccc(O)cc3)C(=O)N(Cc3cccc4ccn(Cc5cccc(N)c5)c34)C[C@@H]2N1C(=O)NCc1ccccc1 [compound 213] | 
43 | 3.72 ± 0.47 | C=CCN1CC(=O)N2[C@@H](Cc3ccc(O)cc3)C(=O)N(Cc3ccc(OCCCC)cc3)C[C@@H]2N1C(=O)NCc1ccccc1 [compound 214] | 
44 | 33.1 ± 4.07 | C=CCN1CC(=O)N2[C@@H](Cc3ccc(OS(=O)(=O)NC(=O)OCCN(C)C)cc3)C(=O)N(Cc3cccc4c(C(=O)C5CC5)c[nH]c34)C[C@@H]2N1C(=O)NCc1ccccc1 [compound 220] | 
45 | 4.3 ± 0.67 | C=CCN1CC(=O)N2[C@@H](Cc3ccc(O)cc3)C(=O)N(Cc3cccc(NC(N)=O)c3)C[C@@H]2N1C(=O)NCc1ccccc1 [compound 225] | 
46 | 4.33 ± 0.5 | C=CCN1CC(=O)N2[C@@H](Cc3ccc(O)cc3)C(=O)N(Cc3cccc(OC)c3OC3Cc4ccccc4C3)C[C@@H]2N1C(=O)NCc1ccccc1 [compound 226] | 
47 | 4.51 ± 0.72 | C=CCN1CC(=O)N2[C@@H](Cc3ccc(O)cc3)C(=O)N(Cc3ccc4ncoc4c3)C[C@@H]2N1C(=O)NCc1ccccc1 [compound 228] | 
48 | 4.78 ± 0.69 | C=CCN1CC(=O)N2[C@@H](Cc3ccc(OS(N)(=O)=O)cc3)C(=O)N(Cc3cccc(C(N)=O)c3)C[C@@H]2N1C(=O)NCc1ccccc1 [compound 229] | 
49 | 40.7 ± 6.4 | C=CCN1CC(=O)N2[C@@H](Cc3ccc(O)c(Br)c3)C(=O)N(Cc3cccc4scnc34)C[C@@H]2N1C(=O)NCc1ccccc1 [compound 235] | 
50 | 41.7 ± 4.2 | C=CCN1CC(=O)N2[C@@H](Cc3ccc(O)cc3)C(=O)N(Cc3ccc(C(C)(C)C)cc3)C[C@@H]2N1C(=O)NCc1ccccc1 [compound 236] | 
51 | 49.8 ± 4.8 | C=CCN1CC(=O)N2[C@@H](Cc3ccc(O)cc3)C(=O)N(Cc3ccc(F)c4scnc34)C[C@@H]2N1C(=O)NCC1CCCCC1 [compound 238] | 
52 | 5.81 ± 0.58 | C=CCN1CC(=O)N2[C@@H](Cc3ccc(O)cc3)C(=O)N(Cc3cccc(NS(N)(=O)=O)c3)C[C@@H]2N1C(=O)NCc1ccccc1 [compound 243] | 
53 | 5.98 ± 1.03 | C=CCN1CC(=O)N2[C@@H](Cc3ccc(O)cc3)C(=O)N(Cc3cc4c(cc3[N+](=O)[O-])OCO4)C[C@@H]2N1C(=O)NCc1ccccc1 [compound 244] | 
54 | 6.71 ± 1.57 | C=CCN1CC(=O)N2[C@@H](Cc3ccc(O)cc3)C(=O)N(Cc3cccc(-c4ccc(O)cc4)n3)C[C@@H]2N1C(=O)NCc1ccccc1 [compound 248] | 
55 | 6.98 ± 1.45 | C=CCN1CC(=O)N2[C@@H](Cc3ccc(O)cc3)C(=O)N(Cc3csc4c(NC(C)=O)cccc34)C[C@@H]2N1C(=O)NCc1ccccc1 [compound 250] | 
